From article PMC7641581, “Cannabidiol interactions with voltage-gated sodium channels” (eLife, 2020) come the findings set out here.

Residue numbers refer to the chain shown, from its start.

Experiment [1] addresses T1, NavMs voltage-gated sodium channel (Magnetococcus marinus, UniProt A0L5S6).
T1 construct: gene Mmc1_0798; wild-type NavMs α-subunit in CHO-K1 cells, co-transfected with β1-subunit and eGFP
T1 sequence (A0L5S6 1-274): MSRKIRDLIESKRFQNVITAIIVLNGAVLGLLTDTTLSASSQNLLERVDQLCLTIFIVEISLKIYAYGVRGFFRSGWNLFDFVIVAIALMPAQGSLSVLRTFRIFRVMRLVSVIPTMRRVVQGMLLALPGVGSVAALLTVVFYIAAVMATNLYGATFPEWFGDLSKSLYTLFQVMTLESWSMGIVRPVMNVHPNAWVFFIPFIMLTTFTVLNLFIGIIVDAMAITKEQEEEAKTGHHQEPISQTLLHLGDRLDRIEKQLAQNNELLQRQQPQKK
As to the kind of experiment: whole-cell voltage-clamp of transfected CHO-K1 cells. Type of experiment: cell-based.

Experiment [2] deals with T2, NavMs voltage-gated sodium channel (Magnetococcus marinus, UniProt A0L5S6, T207A).
T2 construct: gene Mmc1_0798; T207A NavMs α-subunit in CHO-K1 cells, co-transfected with β1-subunit and eGFP
T2 sequence (A0L5S6 1-274 T207A): T1 sequence (A0L5S6 1-274) with T207A
As to the kind of experiment: whole-cell voltage-clamp, block at […] CBD. It counts as cell-based.

In turn, `C=C(C)[C@@H]1CCC(C)=C[C@H]1c1c(O)cc(CCCCC)cc1O` [Cannabidiol] returned a half-inhibitory concentration (IC50) in experiment [1] of 17.8 ± 0.5 µM. The “whole-cell voltage-clamp, block at 10 μM CBD” value in experiment [2] was “The mutation of the threonine side chain to a smaller alanine side chain results in a modest reduction in the CBD block”.

As usually defined, the IC50 is the concentration that gives 50% inhibition. A high value points to a need for much substance.
